Residues, ends and D or L forms follow the SMILES beside them.
Experiments:
[1] = target: T1, Dopamine receptor (Bos taurus) (UniProt Q95136+P20288); experiment: Tested for ability to enhance the binding of the dopamine receptor agonist [3H]-ADTN to striatal dopamine receptors in vitro at 10 e-6 M; assay type: protein assay
[2] = target: T1, Dopamine receptor (Bos taurus); experiment: Tested for ability to enhance the binding of the dopamine receptor agonist [3H]ADTN to striatal dopamine receptors in vitro; assay type: protein assay

Row | Binding [1] [%] | Binding [2] [%] | Structure (SMILES)
1 | 40 | – | NC(=O)[C@H]1CS[C@@H]2C[C@]3(CCCN3C(=O)C3CCCN3)C(=O)N12 (some centres not stated)
2 | – | 26 | CC(C)C[C@H](NC(=O)[C@@H]1CCCN1)C(=O)NCC(N)=O (H-Pro-Leu-Gly-NH2)

— ChEMBL document CHEMBL1126889, “Dopamine receptor modulation by a highly rigid spiro bicyclic peptidomimetic of Pro-Leu-Gly-NH2” (J Med Chem, 1993)
